Measured values taken from article PMC7066135, “The lipoprotein Pal stabilises the bacterial outer membrane during constriction by a mobilisation-and-capture mechanism” (Nature Communications, 2020).
Ends that are not written are not given here. Peptide text beside a SMILES is read from it. * marks the point of attachment. FITC = O=C1OC2(c3ccc(O)cc3Oc3cc(O)ccc32)c2ccc(NC(=S)*)cc21

Key:
[1] = test system: Pal-mCherry in E. coli cells; test: Fluorescence recovery after photobleaching (FRAP) of Pal-mCherry; format: cell-based; settings: non-dividing cells, average from 30 cells
Method: Overnight supplemented M9-glucose (2 mM MgSO4, 0.1 mM CaCl2, 0.4% (w/v) D-glucose) cultures were diluted in fresh medium with appropriate antibiotics and IPTG for strains expressing TolA from plasmids. Cultures were grown at 37 °C to OD600 0.3. Cells were centrifuged at 7000 × g for 1 min, resuspended in 1 ml of fresh media and treated with CCCP (0.1 mM, RT for 5 min, Sigma #C2759) for PMF decoupling, sodium azide (50 µg ml^−1, RT for 30 min, Sigma #S2002) for ATPase inhibition or chloramphenicol (30 µg ml^−1, 37 °C for 30 min, Sigma #C0378) for translation inhibition. […]
Microscopy was performed on a Zeiss LSM 880/Axio Examiner Z1 motorised upright laser scanning microscope equipped with Argon multiline 458/488/514 nm (25 mW), and HeNe 561 nm (1 mW) and ×63 oil-immersion objective (Zeiss, NA 1.4) set to 37 °C. […] Two images were acquired before bleaching and ten images, with a time interval of 1 min, recorded after bleaching using an automatic time-course function. […] For all fluorescent images, corresponding differential interference contrast (DIC) images were recorded using transmitted light. All images were recorded using Zeiss Zen 2011 software.
All images were analysed using ImageJ software. Fluorescence distribution along x-axis of cells was determined by the plot profile function with a line width of 4 points for TIRFM images and 40 or 80 for FRAP images. […]

[2] = biological target: T1, C-terminal domain of wild-type TolA (Pseudomonas aeruginosa, UniProt P50600); test: Stopped-flow fluorescence anisotropy, wild-type TolA; format: binding, P. aeruginosa
T1 construct: The C-terminal domain of Pseudomonas aeruginosa TolA (TolA^224–347) and its derivatives; His-tagged Im9 (fusion partner, factor Xa site) (N, cleaved yes); made in house; host or cells: E. coli BL21 (DE3)
Method: (§1) Experiments were conducted on an Applied Photophysics SX20 instrument set up for 1:1 single mixing and thermostated using a circulating water bath at 25 °C. All stopped-flow experiments were carried out in 50 mM Tris pH 7.0, 100 mM NaCl and under pseudo-first-order conditions. […] Monochromator entrance and exit slits were set to 2 mm. A total of 4000–10,000 data points were collected for each reaction. At least four anisotropy traces were collected for each reaction and averaged for each time-dependence fit. All anisotropy traces were fit to a single exponential rate equation. Each reaction concentration was collected in triplicate and validated using recombinant protein from different protein purifications. SigmaPlot was used for linear regression analysis to fit the dependence of kobs on the varied concentration of TolA. Titrations were performed at increasing concentration of protein relative to a constant concentration of peptide at 1 μM. Experiments were typically performed with 4–10-s data collection periods.
(§2) of mutations in vitro and in vivo. All in vitro measurements used the P. aeruginosa complex while all in vivo assays
(§3) binding a 100-fold excess of the C-terminal domain of wild-type TolA (red) and TolA with its C-terminal α-helix removed
(§4) tion yielding an observed rate (kobs). […]

[3] = biological target: T2, TolA with its C-terminal α-helix removed (Pseudomonas aeruginosa, UniProt P50600); test: Stopped-flow fluorescence anisotropy, helix-truncated TolA; format: binding, P. aeruginosa
T2 construct: Open symbols, TolA224-344 lacking its short; His-tagged Im9 (fusion partner, factor Xa site) (N); made in house; host or cells: E. coli BL21 (DE3)
Method: as §1, §2, §3, §4

[4] = biological target: T3, TolA224-344 lacking its short C-terminal α-helix (Pseudomonas aeruginosa, UniProt P50600); test: Fluorescence anisotropy titration, FITC-labelled TolB peptide, helix-truncated TolA; format: binding, P. aeruginosa; settings: versus wild-type TolA224-347
T3 construct: Open symbols, TolA224-344 lacking its short; His-tagged Im9 (fusion partner, factor Xa site) (N); made in house; host or cells: E. coli BL21 (DE3)
Method: Fluorescence anisotropy experiments were used to observe the change in overall anisotropy of P. aeruginosa TolB^22–34 fluorescein isothiocyanate (FITC) in complex with the C-terminal domain of TolA. A titration curve was recorded using 40 μl fractions in a 96-well, black absorbent, 100 μl plate, n = 3.
Experiments were carried out using either a CLARIOstar plate reader or a Fluoromax- 4 spectrofluorimeter (Horiba JobinYvon). Titrations were carried out between 0 and 1.2 mM TolA. […] FITC excitation wavelength used was 495 nm with an emission wavelength at 519 nm. All experiments were conducted in 50 mM Tris 100 mM NaCl pH 7.0 and used light-blocking tubes to minimize quenching.
(§5) Data were fitted using the manufac-turer ’s software assuming a 1:1 binding model, validated by the resulting structure for the complex. From three independent measurements, average values for ΔH […] (±0.24 standard deviation (SD)) kcal.mol-1, ΔS +11.8 (±2.14 SD) cal.K-1 […]
(§6) form of an isolated peptide. b, Binding of TolB22-34 to the C-terminal domain of 15N-labelled TolA224-347 from P. aeruginosa followed by changes in 1H, 15N-HSQC spectra, >80% of all TolA peaks were perturbed by TolB22-33 binding. Every peak was […]
(§7) and free (32%) TolA. […]
(§8) five-fold weaker binding than the E. coli complex. c, Fluorescence anisotropy binding curves for P. aeruginosa TolB22-33 binding the C-terminal domain of TolA. […]

TolA224-347 = biological target: T4, TolA224-347 (Pseudomonas aeruginosa, UniProt P50600); test: NMR titration (1H,15N-HSQC), TolB peptide binding 15N-labelled TolA; set-up: species or system P. aeruginosa; settings: 1H,15N-HSQC spectra; slow chemical exchange
T4 construct: The C-terminal domain of Pseudomonas aeruginosa TolA (TolA^224–347) and its derivatives; His-tagged Im9 (fusion partner, factor Xa site) (N, cleaved yes); made in house; host or cells: E. coli BL21 (DE3)
Method: NMR experiments were carried out using spectrometers operating at ^1H frequencies ranging from 500 to 950 MHz. The spectrometers were equipped with Oxford Instruments magnets and home-built triple-resonance pulsed-field gradient probes (600, 750 and 950 MHz) or with Bruker Avance consoles and TCI CryoProbes (500 and 600 MHz). NMR data were acquired using either GE/Omega software using pulse sequences written in-house, or Topspin software and pulse sequences in the Topspin libraries from Bruker Biospin. All data processing was conducted using NMRPipe[49]. Processed spectra were visualized and assigned using the CCPN software suite. All NMR data were collected at 20 °C.
as §5, §6, §7, §8

[5] = biological target: E. coli TolB22-33 peptide; test: ITC
[6] = biological target: P. aeruginosa TolB^22–34 fluorescein isothiocyanate (FITC) (P. aeruginosa) (UniProt P50601); test: FP
TolA (Escherichia coli) = TolA (Escherichia coli) (UniProt P19934); settings: cited from earlier work
Pal (Escherichia coli) = Pal (Escherichia coli) (UniProt P0A912); settings: cited from earlier work
TolA-GFP at the divisome = test: 3D-SIM of TolA-GFP recruitment to the divisome; format: cell-based, E. coli; settings: TolB I25A, I27A background versus wild-type TolB, expressed from plasmid; n = 30; Mann-Whitney U and t test
Excerpt: Live bacteria were mounted between an agarose pad and a coverslip. Imaging was processed at room temperature with a ×60, NA 1.42 oil objective on a Deltavision OMX V3 Blaze (GE) equipped with a 488 laser. Image stacks of several μm thickness were taken with 0.125 μm z-steps and 15 images (three angles and five phases per angle) per z-section and a 3D-structured illumination with stripe separation of 213 nm. Laser power was set at 10% to scan the sample over 4 µm thickness (32 slices) without too much photobleaching. Image stacks were reconstructed using Deltavision softWoRx 6.1.1 software with a Wiener filter of 0.002 using wavelength-specific experimentally determined OTF functions (see ref. [37]). […] Distribution of fluorescence intensity along the x-axis of bacteria was determined using a custom script implemented in MATLAB (version 2012a, MathWorks) (see ref. [40]). […] Intensity along the selected bacteria was measured 11 times between the bacterial end-points, each at a uniformly spaced offset from the bacterial long axis. The mean profile was calculated and normalized to the range 0–100 for comparison between bacteria. Diameter measurements correspond to the height of ring, calculated automatically through ImageJ software from each reconstructed and filtered image. A total of 30 cells were analysed per condition, in triplicate. […]

[7] = biological target: T5, C-terminal domain of Pseudomonas aeruginosa TolA (TolA^224–347) (Pseudomonas aeruginosa, UniProt P50600 224-347); test: NMR
T5 chain: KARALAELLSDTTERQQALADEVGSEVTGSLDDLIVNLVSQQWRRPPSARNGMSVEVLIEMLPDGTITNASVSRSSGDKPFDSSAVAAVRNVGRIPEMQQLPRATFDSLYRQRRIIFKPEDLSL

[8] = biological target: T5, C-terminal domain of Pseudomonas …; test: FP

Chain of TolA (Escherichia coli) (P19934 whole entry): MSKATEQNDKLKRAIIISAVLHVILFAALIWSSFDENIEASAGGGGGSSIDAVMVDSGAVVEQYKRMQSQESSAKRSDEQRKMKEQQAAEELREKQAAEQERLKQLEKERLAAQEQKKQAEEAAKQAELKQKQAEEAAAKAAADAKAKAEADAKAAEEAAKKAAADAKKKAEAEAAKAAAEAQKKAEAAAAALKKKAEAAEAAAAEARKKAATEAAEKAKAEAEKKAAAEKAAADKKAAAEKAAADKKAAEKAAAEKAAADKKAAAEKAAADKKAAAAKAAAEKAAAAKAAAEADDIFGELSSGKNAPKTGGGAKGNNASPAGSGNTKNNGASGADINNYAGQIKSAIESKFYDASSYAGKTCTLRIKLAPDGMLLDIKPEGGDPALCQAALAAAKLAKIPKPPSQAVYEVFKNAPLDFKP
Chain of Pal (Escherichia coli) (P0A912 22-173): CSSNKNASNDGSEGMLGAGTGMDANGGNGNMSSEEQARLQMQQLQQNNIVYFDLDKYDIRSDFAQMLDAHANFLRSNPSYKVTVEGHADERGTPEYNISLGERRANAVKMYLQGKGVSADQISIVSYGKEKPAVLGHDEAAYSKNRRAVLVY

For `N#CC(C#N)=NNc1cccc(Cl)c1` [CCCP], the “effect on FRAP recovery” value ([1]; CCCP 0.1 mM) was “measurable effect”.

For `CC[C@H](C)[C@H](NC(=O)[C@@H](NC(=O)[C@H](CC(C)C)NC(=O)[C@@H]1CCCN1C(=O)[C@H](CC(=O)O)NC(=O)[C@H](C)N)C(C)C)C(=O)N[C@@H](CO)C(=O)N[C@@H](CO)C(=O)NCC(=O)N[C@@H](CC(N)=O)C(=O)N[C@@H](CC(=O)O)C(=O)N[C@@H](CCCNC(=N)N)C(=O)N[C@@H](CCCCNC(=S)Nc1ccc2c(c1)C(=O)OC21c2ccc(O)cc2Oc2cc(O)ccc21)C(N)=O` [P. aeruginosa TolB22-33] (H-ADPLVISSGNDRK(FITC)-NH2; N-terminus and C-terminus assumed), the koff [2] was 0.9 s⁻¹, the koff [3] was 1.4 s⁻¹ and the “kon relative to wild-type complex” value ([3]; helix truncation versus wild-type TolA) was “three-fold faster”. The “improvement of TolB binding on deletion of the TolA helix” value [4] was “three-fold”.

In the case of `[N-]=[N+]=[N-].[Na+]` [sodium azide], the “effect on FRAP recovery” value ([1]; sodium azide 50 µg/µl) is reported as “measurable effect”.

With ADPLVISSGNDRA-NH2 [TolB22-34] the “TolA peaks perturbed by TolB peptide binding” value (TolA224-347) was greater than 80%.

With E. coli TolA C-terminal domain the Kd [5] was 42 µM.

Work on “TolA224-344 (P. aeruginosa, lacking C-terminal α-helix)” yielded a Kd [6] of 86 µM.

For TolB (from UniProt P0A855), the Kd (TolA (Escherichia coli)) is listed as 40 µM and the Kd (Pal (Escherichia coli)) is listed as 0.03 µM.

With TolB I25A, I27A the “divisome recruitment of TolA-GFP (intensity distribution, ring diameter)” value (TolA-GFP at the divisome) was “no significant difference”.

B1: P. aeruginosa TolB^22–34 peptide (the N-terminus of secreted TolB; the TolA box) (peptide)
peptide: ADPLVISSGNDRA-NH2
In the case of B1, the Kd [7] is reported as 220 µM.

B2: P. aeruginosa TolB^22–34 fluorescein isothiocyanate (FITC) (peptide)
peptide: ADPLVISSGNDRAK(FITC)
B2 gave a Kd [8] of 250 µM.
